Test systems include HT29 colon; K-562 leukemia; LOX IMVI melanoma; RPMI-8226 leukemia; OVCAR-8 ovarian; SN12C renal; SK-MEL-2 melanoma; HOP-92 NSCLC; HL-60(TB) leukemia; HCT-15 colon.
Holding throughout (test): DTP human tumour cell line panel, 48 h

For orientation: TGI means the concentration giving total growth inhibition. Higher therefore signals less potent growth arrest. A word on the GI50: it is the concentration giving 50% growth inhibition.

“And” between values parts separate entries of the source, which are not always exact repeats. Equal values may be shown once.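 Method: 48-hour compound exposure of cells in 96-well plates, five concentrations, linear interpolation of endpoints. GI50 = concentration required for 50% inhibition of growth. Definition used: TGI = concentration required for complete inhibition of growth.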 Bounds are passed on as bounds.

For the compound `CC(C)=CCC/C(C)=C/CCC1(C)C=Cc2c(c3ccccc3oc2=O)O1` (centres undefined), the TGI was 33.7 µM in the assay with HT29 colon; > 89 µM in the assay with K-562 leukemia; 32.4 µM in the assay with LOX IMVI melanoma; 63.8 µM with RPMI-8226 leukemia; 30.3 µM in the assay on OVCAR-8 ovarian; 32 µM in the assay with SN12C renal. The TGI in the assay with SK-MEL-2 melanoma was 31.4 µM; in the assay with HOP-92 NSCLC, 25 µM; in the assay on HL-60(TB) leukemia, > 75.8 µM; in the assay on HCT-15 colon, 30.2 µM.
Consider `OC1COC(OCc2ccccc2)C(O)C1O` (centres undefined), for which the TGI in the assay with HT29 colon, in the assay on K-562 leukemia, with LOX IMVI melanoma, in the assay with RPMI-8226 leukemia, in the assay with OVCAR-8 ovarian and in the assay on SN12C renal was > 100 µM each time. For the same compound, the TGI in the assay on SK-MEL-2 melanoma, with HOP-92 NSCLC, in the assay on HL-60(TB) leukemia and in the assay with HCT-15 colon was > 100 µM in each case.
As to `C/C(=N\NC(=S)Nc1ccc([N+](=O)[O-])cc1)c1nc2ncccc2[nH]1`, the TGI in the assay with HT29 colon is 2.04 µM; in the assay with K-562 leukemia it was > 100 µM; in the assay with RPMI-8226 leukemia it was 9.3 µM; in the assay with OVCAR-8 ovarian, 1.71 µM; in the assay on SN12C renal, 56.6 µM; with SK-MEL-2 melanoma it was 4.06 µM. Besides, the values for the TGI in the assay on HOP-92 NSCLC, in the assay with HL-60(TB) leukemia and in the assay on HCT-15 colon were 18 µM, > 100 µM and 9.04 µM, respectively.
`O=C(O)CCCc1ccccc1`: the GI50 is 221 µM and > 1000 µM in the assay with HT29 colon; > 1000 µM in the assay with K-562 leukemia; 224 µM and > 1000 µM in the assay with LOX IMVI melanoma; 19.5 µM with RPMI-8226 leukemia; 150 µM and 17.3 µM in the assay on OVCAR-8 ovarian; > 1000 µM in the assay on SN12C renal. Besides, the GI50 in the assay on SK-MEL-2 melanoma was 349 µM and > 1000 µM; in the assay on HOP-92 NSCLC it was > 1000 µM; in the assay with HL-60(TB) leukemia it was > 1000 µM; in the assay with HCT-15 colon, > 1000 µM. In addition, the TGI in the assay on HT29 colon was > 1000 µM; in the assay with K-562 leukemia it was 338 µM and > 1000 µM; with LOX IMVI melanoma, 898 µM and > 1000 µM; in the assay with RPMI-8226 leukemia it was 79.2 µM; with SN12C renal it was > 1000 µM; in the assay on SK-MEL-2 melanoma it was 932 µM and > 1000 µM. Moreover, the TGI was 363 µM and > 1000 µM with HOP-92 NSCLC; > 1000 µM in the assay on HL-60(TB) leukemia; 342 µM and > 1000 µM with HCT-15 colon.
Turning to `Cc1cn(C2CC(O)C(Cn3nncc3Cn3ncc(=O)[nH]c3=O)O2)c(=O)[nH]c1=O` (centres undefined), the TGI in the assay with LOX IMVI melanoma, in the assay with RPMI-8226 leukemia, in the assay on OVCAR-8 ovarian, in the assay with SN12C renal, in the assay with SK-MEL-2 melanoma and with HOP-92 NSCLC was > 100 µM in each case. For the same compound, the TGI in the assay on HCT-15 colon is > 100 µM.
On to `C=CCNC(=O)CN(CC(=O)OC)C1CCCCC1N(CC(=O)OC)CC(=O)OC` (centres undefined), for which the TGI in the assay with HT29 colon, in the assay on K-562 leukemia, in the assay on LOX IMVI melanoma, in the assay with RPMI-8226 leukemia, in the assay on OVCAR-8 ovarian and with SN12C renal was > 100 µM in each case. Further, the TGI in the assay on SK-MEL-2 melanoma, in the assay on HOP-92 NSCLC, with HL-60(TB) leukemia and with HCT-15 colon was > 100 µM each time.
With `O=C(O)C12CC3CC(C1)C2C=C3P(=O)(O)O` (centres undefined), the TGI in the assay with HT29 colon, in the assay on K-562 leukemia, in the assay on LOX IMVI melanoma, in the assay with RPMI-8226 leukemia, in the assay with OVCAR-8 ovarian and in the assay with SN12C renal was > 100 µM in each case. Moreover, the TGI in the assay with SK-MEL-2 melanoma, in the assay with HOP-92 NSCLC, with HL-60(TB) leukemia and in the assay on HCT-15 colon was > 100 µM throughout.
In the case of `COCCOCOC(C)(C)[C@H](CCO)O[Si](c1ccccc1)(c1ccccc1)C(C)(C)C`, the TGI was determined as 21.4 µM in the assay on HT29 colon; 23.3 µM in the assay on LOX IMVI melanoma; 35.5 µM in the assay on RPMI-8226 leukemia; 23.5 µM with OVCAR-8 ovarian; 12.7 µM in the assay on SN12C renal; 23.6 µM with HOP-92 NSCLC. The total growth inhibition concentration (TGI) with HL-60(TB) leukemia stood at 9.05 µM; in the assay on HCT-15 colon, 17.5 µM.
Regarding `O=C1c2ccccc2C(=O)c2c1cc1c(c2[N+](=O)[O-])OCO1`, the GI50 with HT29 colon is 4.24 µM; in the assay with K-562 leukemia, 0.621 µM; in the assay with LOX IMVI melanoma it was 1.43 µM; in the assay on RPMI-8226 leukemia it was 0.267 µM; with OVCAR-8 ovarian it was 1.68 µM; with SN12C renal it was 1.73 µM. The GI50 in the assay with SK-MEL-2 melanoma is 2.56 µM; in the assay with HOP-92 NSCLC, 1.27 µM; in the assay with HL-60(TB) leukemia it was 0.465 µM; with HCT-15 colon, 2.15 µM. Besides, the TGI in the assay on HT29 colon is 22 µM; with K-562 leukemia, 6.26 µM; with LOX IMVI melanoma it was 4.92 µM; in the assay with RPMI-8226 leukemia, 0.916 µM; in the assay on OVCAR-8 ovarian, 10.3 µM; in the assay on SN12C renal it was 8.05 µM. The TGI worked out at 5.14 µM in the assay on SK-MEL-2 melanoma, 3.75 µM in the assay on HOP-92 NSCLC, 8.94 µM in the assay with HL-60(TB) leukemia and 8.82 µM in the assay on HCT-15 colon.
Take `CC(C)=CC(=O)OC1C2C(C)=CC(O)C(O)C2(C)C2C3(O)OCC24C(CC(=O)OC14)C(C)C3O` (centres undefined): the TGI with HT29 colon was 0.836 µM; with K-562 leukemia, 1.79 µM; in the assay on LOX IMVI melanoma, 0.325 µM; with RPMI-8226 leukemia it was 0.131 µM; in the assay with OVCAR-8 ovarian, 0.82 µM; with SN12C renal it was 6.9 µM. Further, the TGI with SK-MEL-2 melanoma turned out to be 0.655 µM; with HOP-92 NSCLC it was 0.26 µM; in the assay with HL-60(TB) leukemia, 0.409 µM; in the assay on HCT-15 colon it was 6.84 µM.
For the compound `COc1cc(/C=C/C2=C(C#N)C(=O)OC2(C)C)ccc1O`, the TGI is > 100 µM in the assay on HT29 colon; > 100 µM with K-562 leukemia; 44.2 µM with LOX IMVI melanoma; 49.6 µM in the assay with RPMI-8226 leukemia; > 100 µM with OVCAR-8 ovarian; > 100 µM in the assay with SN12C renal. Besides, the total growth inhibition concentration (TGI) with SK-MEL-2 melanoma is > 100 µM; in the assay with HOP-92 NSCLC, > 100 µM; in the assay with HL-60(TB) leukemia it was > 100 µM; in the assay with HCT-15 colon it was 93.8 µM.
As to `CCCCCCCCCCCCC(O)C(=O)O` (centres undefined), the concentration for total growth inhibition (TGI) in the assay with HT29 colon, in the assay with K-562 leukemia, with LOX IMVI melanoma, with RPMI-8226 leukemia, with OVCAR-8 ovarian and in the assay on SN12C renal was > 100 µM each time. Also, the TGI in the assay with SK-MEL-2 melanoma, with HOP-92 NSCLC, in the assay on HL-60(TB) leukemia and in the assay on HCT-15 colon was > 100 µM in each case.
For `COc1cc(C(=O)C2CC3(CCC2(O)c2cc(OC)c(OC)c(OC)c2)CC(=O)Nc2ccccc2C3=O)cc(OC)c1OC` (centres undefined), the total growth inhibition concentration (TGI) in the assay on HT29 colon, in the assay on K-562 leukemia, with LOX IMVI melanoma, in the assay with OVCAR-8 ovarian, with SN12C renal and with SK-MEL-2 melanoma was > 100 µM throughout. Moreover, the TGI in the assay with HOP-92 NSCLC is > 100 µM; in the assay on HL-60(TB) leukemia, 78.8 µM; with HCT-15 colon, > 100 µM.
Consider `c1ccc2cc3c(cc2c1)OP1(Oc2cccc4cccnc24)(O3)Oc2cc3ccccc3cc2O1`, for which the TGI was 12.6 µM in the assay on HT29 colon; > 40.3 µM in the assay on K-562 leukemia; 22.5 µM with LOX IMVI melanoma; > 57.1 µM in the assay with OVCAR-8 ovarian; > 100 µM in the assay with SN12C renal; 79.6 µM in the assay with SK-MEL-2 melanoma. The TGI was 76.3 µM with HOP-92 NSCLC, 5.78 µM in the assay with HL-60(TB) leukemia and > 100 µM in the assay on HCT-15 colon.
As for `Nc1n[nH]c(CCCCCCCc2nc(N)n[nH]2)n1`, the TGI in the assay on HT29 colon, in the assay with K-562 leukemia, with LOX IMVI melanoma, in the assay with RPMI-8226 leukemia, in the assay on SN12C renal and with SK-MEL-2 melanoma was > 100 µM throughout. Moreover, the TGI with HL-60(TB) leukemia and in the assay on HCT-15 colon was > 100 µM each time.
As for `Cc1c(C2=NN=C(N=Nc3c(O)cccc3O)/C2=C/c2ccccc2)c(=O)n(-c2ccccc2)n1C`, the TGI in the assay on HT29 colon, with K-562 leukemia, in the assay with LOX IMVI melanoma, in the assay with RPMI-8226 leukemia, with OVCAR-8 ovarian and with SN12C renal was > 100 µM each time. Further, the TGI in the assay on SK-MEL-2 melanoma, in the assay with HOP-92 NSCLC, in the assay with HL-60(TB) leukemia and in the assay with HCT-15 colon was > 100 µM in each case.

Values taken from PubChem BioAssay (NCI).
